# Assay results published in ChEMBL document CHEMBL5030542, “Pillar[5]arene-Based Polycationic Glyco[2]rotaxanes Designed as Pseudomonas aeruginosa Antibiofilm Agents” (J Med Chem, 2021).
# Active and inactive are the calls of the source. The rule behind the calls is not given here.
# Columns and labels:
# Pseudomonas aeruginosa [1] = test: Anti-bioflim activity against Pseudomonas aeruginosa PAO1 assessed as inhibition of bioflim formation incubated for 24 hrs by crystal violet staining based assay; assay type: functional
# [2] = Binding affinity to recombinant Pseudomonas aeruginosa LecA expressed in Escherichia coli assessed as dissociation constant by isothermal titration calorimetry
# [3] = biological target: Fucose-binding lectin PA-IIL (Pseudomonas aeruginosa (strain ATCC 15692 / DSM 22644 / CIP 104116 / JCM14847 / LMG 12228 / 1C / PRS 101 / PAO1), UniProt Q9HYN5); test: Binding affinity to recombinant Pseudomonas aeruginosa lecB expressed in Escherichia coli assessed as dissociation constant by isothermal titration calorimetry
# Pseudomonas aeruginosa [4] = test: Binding affinity to recombinant Pseudomonas aeruginosa LecA expressed in Escherichia coli assessed as gibbs free energy change by isothermal titration calorimetry
# [5] = biological target: Fucose-binding lectin PA-IIL (Pseudomonas aeruginosa (strain ATCC 15692 / DSM 22644 / CIP 104116 / JCM14847 / LMG 12228 / 1C / PRS 101 / PAO1)) (UniProt Q9HYN5); test: Binding affinity to recombinant Pseudomonas aeruginosa LecB expressed in Escherichia coli assessed as gibbs free energy change by isothermal titration calorimetry
# Pseudomonas aeruginosa [6] = test: Binding affinity to recombinant Pseudomonas aeruginosa LecA expressed in Escherichia coli assessed as change in enthalpy by isothermal titration calorimetry
# [7] = biological target: Fucose-binding lectin PA-IIL (Pseudomonas aeruginosa (strain ATCC 15692 / DSM 22644 / CIP 104116 / JCM14847 / LMG 12228 / 1C / PRS 101 / PAO1)) (UniProt Q9HYN5); test: Binding affinity to recombinant Pseudomonas aeruginosa LecB expressed in Escherichia coli assessed as change in enthalpy by isothermal titration calorimetry
# Pseudomonas aeruginosa [8] = test: Binding affinity to recombinant Pseudomonas aeruginosa LecA expressed in Escherichia coli assessed as change in entropy by isothermal titration calorimetry
# [9] = biological target: Fucose-binding lectin PA-IIL (Pseudomonas aeruginosa (strain ATCC 15692 / DSM 22644 / CIP 104116 / JCM14847 / LMG 12228 / 1C / PRS 101 / PAO1)) (UniProt Q9HYN5); test: Binding affinity to recombinant Pseudomonas aeruginosa LecB expressed in Escherichia coli assessed as change in entropy by isothermal titration calorimetry
# Pseudomonas aeruginosa [10] = test: Anti-bioflim activity against Pseudomonas aeruginosa PAO1 assessed as inhibition of bioflim formation measured at MBIC50 concentration incubated for 24 hrs by crystal violet staining based assay; assay type: functional
# Pseudomonas aeruginosa [11] = test: Antibacterial activity against Pseudomonas aeruginosa PAO1 assessed as inhibition of bacterial growth for complete inhibition of bacterial growth incubated for 24 hrs; assay type: functional
# Chain of Fucose-binding lectin PA-IIL (Pseudomonas aeruginosa (strain ATCC 15692 / DSM 22644 / CIP 104116 / JCM14847 / LMG 12228 / 1C / PRS 101 / PAO1)) (Q9HYN5 as listed by the source): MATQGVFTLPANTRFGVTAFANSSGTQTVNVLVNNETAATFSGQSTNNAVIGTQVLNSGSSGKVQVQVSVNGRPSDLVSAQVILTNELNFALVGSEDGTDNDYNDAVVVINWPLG
# Chain of Fucose-binding lectin PA-IIL (Q9HYN5 whole entry): as the sequence (Q9HYN5 as listed by the source) above
SMILES,MBIC50 (Pseudomonas aeruginosa [1]) [µM],Kd [2] [nM],Kd [3] [nM],deltaG (Pseudomonas aeruginosa [4]) [kcal/mol],deltaG [5] [kcal/mol],deltaH (Pseudomonas aeruginosa [6]) [kcal/mol],deltaH [7] [kcal/mol],-TΔS (Pseudomonas aeruginosa [8]) [kcal/mol],deltaS [9] [kcal/mol],MBIC50 (Pseudomonas aeruginosa [10]),MIC (Pseudomonas aeruginosa [11]) [µM],inhibition (INH) (Pseudomonas aeruginosa [10]) [%],deltaS (Pseudomonas aeruginosa [8]) [kcal/mol]
C[C@@H]1O[C@@H](OCCOCCn2cc(COCC(COCc3cn(CCOCCO[C@@H]4O[C@@H](C)[C@@H](O)[C@@H](O)[C@@H]4O)nn3)N=[N+]=[N-])nn2)[C@@H](O)[C@H](O)[C@@H]1O.OC[C@H]1O[C@@H](OCc2cn(CCCOc3cc4c(OCCn5cc(CO[C@@H]6O[C@H](CO)[C@H](O)[C@H](O)[C@H]6O)nn5)cc3Cc3cc(OCCn5cc(CO[C@@H]6O[C@H](CO)[C@H](O)[C@H](O)[C@H]6O)nn5)c(cc3OCCn3cc(CO[C@@H]5O[C@H](CO)[C@H](O)[C@H](O)[C@H]5O)nn3)Cc3cc(OCCn5cc(CO[C@@H]6O[C@H](CO)[C@H](O)[C@H](O)[C@H]6O)nn5)c(cc3OCCn3cc(CO[C@@H]5O[C@H](CO)[C@H](O)[C@H](O)[C@H]5O)nn3)Cc3cc(OCCn5cc(CO[C@@H]6O[C@H](CO)[C@H](O)[C@H](O)[C@H]6O)nn5)c(cc3OCCn3cc(CO[C@@H]5O[C@H](CO)[C@H](O)[C@H](O)[C@H]5O)nn3)Cc3cc(OCCCn5cc(CO[C@@H]6O[C@H](CO)[C@H](O)[C@H](O)[C@H]6O)nn5)c(cc3OCCn3cc(CO[C@@H]5O[C@H](CO)[C@H](O)[C@H](O)[C@H]5O)nn3)C4)nn2)[C@H](O)[C@@H](O)[C@H]1O,>150,646,474,-8.46,-8.63,-25.1,-14.7,16.6,6.07,inactive,> 150,,
NC[C@H]1O[C@H](O[C@H]2[C@H](O)[C@@H](O[C@H]3O[C@H](CO)[C@@H](O)[C@H](N)[C@H]3O)[C@H](N)C[C@@H]2N)[C@H](N)C[C@@H]1O [TOBRAMYCIN],2,,,,,,,,,,,92,
OC[C@H]1O[C@@H](OCc2cn(CCOc3cc4c(OCCn5cc(CO[C@@H]6O[C@H](CO)[C@H](O)[C@H](O)[C@H]6O)nn5)cc3Cc3cc(OCCn5cc(CO[C@@H]6O[C@H](CO)[C@H](O)[C@H](O)[C@H]6O)nn5)c(cc3OCCn3cc(CO[C@@H]5O[C@H](CO)[C@H](O)[C@H](O)[C@H]5O)nn3)Cc3cc(OCCn5cc(CO[C@@H]6O[C@H](CO)[C@H](O)[C@H](O)[C@H]6O)nn5)c(cc3OCCn3cc(CO[C@@H]5O[C@H](CO)[C@H](O)[C@H](O)[C@H]5O)nn3)Cc3cc(OCCn5cc(CO[C@@H]6O[C@H](CO)[C@H](O)[C@H](O)[C@H]6O)nn5)c(cc3OCCn3cc(CO[C@@H]5O[C@H](CO)[C@H](O)[C@H](O)[C@H]5O)nn3)Cc3cc(OCCn5cc(CO[C@@H]6O[C@H](CO)[C@H](O)[C@H](O)[C@H]6O)nn5)c(cc3OCCn3cc(CO[C@@H]5O[C@H](CO)[C@H](O)[C@H](O)[C@H]5O)nn3)C4)nn2)[C@H](O)[C@@H](O)[C@H]1O,,145,,-9.35,,-37.5,,,,,,,28.2
CO[C@@H]1O[C@H](CO)[C@H](O)[C@H](O)[C@H]1O,,55700,,-5.81,,-4.54,,,,,,,
